In patent US20250092437A1, “DISEASE DETECTION WITH COMBINATORIAL BIOMARKERS” (priority 2021, published 2025):
Primed or numbered codes have the meaning given here. Ends that are not written are not given here. PEG2′ = not defined here

What was measured:
[1] = system: proteolytic cleavage of Probe #102 (cathepsin L, CTSL); assay: protease inhibitor profiling of Probe #102 cleavage in NASH and healthy plasma; type: biochemical, mice; conditions: for effect on Probe #102 signal: NASH and healthy plasma
Description: For this experiment, all plasma samples were prepared individually and diluted 1/10e in PBS with inhibitor added directly to the samples. Inhibitor was prepared at 15× concentration to final. Substrates were diluted in DI water at 18 uM, such that the final concentration on the plate would be 6 uM. All samples were prepared such that their last dilution on the plate would not affect the desired final concentration. 10 ul of each individual sample was pipetted into their corresponding wells, and the plate was then spun down in the centrifuge at 1500 RPM for 30 seconds to coat the bottom of each well with the sample. 5 ul of the 18 uM substrate solution was pipetted into each well being used on a 384 well plate, and then the plate was spun down in the centrifuge at 1500 rpm for 30 seconds. The plate was placed immediately in the plate reader at 37° C. for a 30-minute-long fluorescence kinetic read at 485/535 extended gain.
To assess the proteolytic cleavage pattern of Probe #102, samples were tested using a pool of broad inhibitors for serine, cysteine, threonine, MMP and aspartic protease family members (broad inhibitor) to assess general protease activity, AEBSF for serine proteases, E64 for cysteine proteases, CTSi for broad cathepsin inhibition of cathepsins L, S, K and B, or specific inhibitors for cathepsin K (L00625), for cathepsin L (SID) or cathepsin B (CA074).

[2] = system: carboxylesterase 1, phospholipase A2 and lipoprotein lipase; assay: spiked recombinant enzymes in human plasma with resorufin oleate as substrate; type: biochemical
[3] = system: host response and SARS-COV2 proteases; assay: probe cleavage in K2 EDTA and Lithium Heparin plasma, COVID vs healthy; type: biochemical
[4] = system: cathepsin and/or MMP protease activities; assay: probe cleavage in plasma of healthy, NASH regression and NASH progression mice; type: biochemical; conditions: K2 EDTA plasma at 20 weeks
Text: Plasma samples were collected from all animals at 20 weeks.
The probes showing the most differentiation in NASH were linked to cathepsin and/or MMP protease activities.

[5] = system: NASH-related proteases; assay: ex vivo fluorescent probe cleavage (RFU/min) in K2 EDTA plasma, NASH (CDAHFD) vs healthy (CD) mice; type: biochemical; conditions: n=10 samples and pooled plasma
Description: All animals were used in accordance with animal care guidelines. Plasma was obtained from these blood samples by centrifugation at 3,500 RPM for 20 min at 4° C. The plasma was stored at −80° C. until it was needed for experimental purposes.
Samples were mixed with protease substrates and quenchers/reporters in 96-well plates. The 96-well plates were read on a Biotech Synergy H1, using 465,535 excitation/emission settings.
Probes measuring cathepsin activity were 3-fold higher in protease cleavage kinetics in mice with NASH compared to healthy mice.
A single plasma sample was contacted with the probes for each predetermined protease to provide a multiplex assessment of protease activity in the sample.

[6] = system: caspase activity; assay: ex vivo probe cleavage in plasma of Jo2 fulminant hepatitis mice; type: biochemical; conditions: mouse plasma 3 hours after Jo2 injection
Description: Fulminant hepatitis is induced after injection intraperitoneal of monoclonal antibody anti-CD95 (Jo2, BD biosciences, 4 ug/animal), and mouse plasma samples were collected 3 hours after Jo2 injection.

[7] = system: Granzyme B; assay: probe cleavage in COVID positive and COVID negative swab samples; type: biochemical
[8] = K2 EDTA and Lithium Heparin plasma sets

NCCc1ccc(S(=O)(=O)F)cc1 [AEBSF]
decrease of NASH signal ([1]; Probe #102, NASH plasma): 65%
decrease of healthy signal ([1]; Probe #102, healthy plasma): 60%

CN1CCN(c2nc(-c3ccc(C(=O)NC4(C(=O)NCC#N)CCCCC4)cc3)cs2)CC1 [Probe L006235]
effect on Probe #102 signal [1]: did not significantly decrease signal

CCCC(=O)O [butyrate]
suitability as substrate for enzyme detection [2]: promising for detection of broad range of enzymes

Probe #18: a Neutrophil elastase substrate (GAAPVGK; also: 5-FAM, CPQ2 quencher, PEG2-kk-GC, places not given here)
differential cleavage between COVID and healthy samples [3, 8]: demonstrated contrast in both sets

Probe #102: a CTSL sensing probe; fluorescent reporter and quencher peptide probe (GKPILFFRLKG; also: FAM (position not given here), K(CPQ2) quencher (position not given here), PEG2-kk-GC (attachment not given here))
protease whose activity the probe responds to ([1]; inhibitor experiments FIG. 30D-F): specifically responds to the activity of cathepsin L (CTSL)
differentiation among healthy, regression and NASH plasma samples [4]: can differentiate
what the measured rate of fluorescence increase is ascribed to [5]: can be ascribed to protease activity and to NASH disease

CCCNC(=O)[C@H]1O[C@@H]1C(=O)N[C@H](C(=O)N1CCC[C@H]1C(=O)O)[C@@H](C)CC [CA074]
effect on Probe #102 signal [1]: did not significantly decrease signal

Probe #409: the SARS CoV2 coronavirus substrate (SARS-COV2 3C protease) (GTSAVLQSGFRKGK; also: 5-FAM, CPQ2 quencher, PEG2-kk-GC, places not given here)
differential cleavage between COVID and healthy samples ([3]; K2 EDTA samples): modest contrast

Probe #462: a MMP8 substrate (GKKAKRNALG; also: FAM (position not given here), K(CPQ2) (position not given here), PEG2, D-Lys-D-Lys-GC (attachment not given here))
differential cleavage between COVID and healthy samples [3, 8]: demonstrated contrast in both sets

Probe #96: probe differentiating healthy, regression and NASH plasma samples ({FAM}-GRPLALWESQG-{K(CPQ2)-PEG2′-dK-Gly-Cys}; not fully specified; printed as (FAM)-GRPLALWESQG-K(CPQ2)-PEG2-k-GC)
differentiation among healthy, regression and NASH plasma samples [4]: can differentiate

Probe #8: Caspase centric probe (VDVAD; not fully specified; 5-FAM, CPQ2 quencher, PEG2, D-Lys-D-Lys-GC)
contrast between healthy and Jo2 samples [6]: contrast that is specific and sensitive to the Jo2 model

CC(C)C[C@H](NC(=O)[C@H]1O[C@@H]1C(=O)O)C(=O)NCCCCN=C(N)N [Probe E64, E64]
effect on Probe #102 signal [1]: decreased NASH signal significantly

Resorufin oleate
suitability as substrate for enzyme detection [2]: promising for detection of broad range of enzymes

Probe #428: probe differentiating healthy, regression and NASH plasma samples ({FAM}-GDRRKKLTQG-{K(CPQ2)-PEG2′-dK-dK-Gly-Cys}; not fully specified; printed as (FAM)-GDRRKKLTQG-K(CPQ2)-(PEG2)-DLys-DLys-GC)
differentiation among healthy, regression and NASH plasma samples [4]: can differentiate

Probe #492: probe whose fluorescence increase is ascribed to protease activity and NASH disease in mice plasma ({FAM}-GQRANSIRVTWG-{K(CPQ2)-PEG2′-dK-dK-Gly-Cys}; not fully specified; printed as (FAM)-GQRANSIRVTWG-K(CPQ2)-(PEG2)-DLys-DLys-GC)
differentiation among healthy, regression and NASH plasma samples [4]: can differentiate
what the measured rate of fluorescence increase is ascribed to [5]: can be ascribed to protease activity and to NASH disease

Probe #647: Caspase centric probe; signal measures the activity of protease Granzyme B (GAIEPDSGG; also: 5FAM (position not given here), Lys(CPQ2) (position not given here), PEG2, D-Lys-D-Lys, GC-NH2 (attachment not given here))
contrast between healthy and Jo2 samples [6]: contrast that is specific and sensitive to the Jo2 model
differentiation among healthy, regression and NASH plasma samples [4]: can differentiate
number of active samples, COVID+ ([7]; adjusted RFU across timepoints, COVID+): 7 samples
number of active samples, COVID- ([7]; adjusted RFU across timepoints, COVID-): 1 samples
protease whose activity the probe signal measures ([7]; inhibition experiments, healthy vs COVID samples): measures the activity of protease Granzyme B
differentiation between COVID+ and COVID- samples ([7]; swab samples in saline): key differentiator

Probe #84: a Furin substrate (GRVKRGLAGK; also: 5-FAM, CPQ2 quencher, PEG2-kk-GC, places not given here)
differential cleavage between COVID and healthy samples [3, 8]: demonstrated contrast in both sets

Probe #520: probe differentiating healthy, regression and NASH plasma samples (GKPISLISSG; not fully specified; 5FAM, K(CPQ2), PEG2-GC)
differentiation among healthy, regression and NASH plasma samples [4]: can differentiate
